From ChEMBL document CHEMBL4184216, “Diversity oriented synthesis of chromene-xanthene hybrids as anti-breast cancer agents” (Bioorg Med Chem Lett, 2018)
Where a name gives a salt, the structure may show the parent alone. Activity calls are given as the source filed them. The calls are words filed in the database; no cut-off is given here.

Assays:
MDA-MB-231 [1] = assay: Cytotoxicity against human MDA-MB-231 cells assessed as reduction in cell viability incubated for 24 hrs by MTT assay; type: functional, cell-based; conditions: MDA-MB-231, 24 h
MCF7 = assay: Cytotoxicity against human MCF7 cells assessed as reduction in cell viability incubated for 24 hrs by MTT assay; type: functional, cell-based; conditions: MCF7, 24 h
HEK293 = assay: Cytotoxicity against HEK293 cells assessed as reduction in cell viability incubated for 24 hrs by MTT assay; type: ADME, cell-based; conditions: Homo sapiens, HEK293, 24 h
MDA-MB-231 [2] = assay: Cell cycle arrest in human MDA-MB-231 cells assessed as increase in accumulation at subG1 phase at 0.125 uM incubated for 24 hrs by propidium iodide staining based flow cytometry; type: functional
MDA-MB-231 [3] = assay: Induction of apoptosis in human MDA-MB-231 cells at 0.125 to 0.25 uM incubated for 24 hrs by Annexin V-FITC/propidium iodide staining based flow cytometry; type: functional, cell-based
MDA-MB-231 [4] = assay: Cell cycle arrest in human MDA-MB-231 cells assessed as increase in accumulation at G1 phase at 0.125 to 0.25 uM incubated for 24 hrs by propidium iodide staining based flow cytometry; type: functional
MDA-MB-231 [5] = assay: Cell cycle arrest in human MDA-MB-231 cells assessed as reduction in accumulation at G2/M phase at 0.125 to 0.25 uM incubated for 24 hrs by propidium iodide staining based flow cytometry; type: functional

Structure (SMILES) | IC50 (MDA-MB-231 [1]) [µM] | IC50 (MCF7) [µM] | IC50 (HEK293) [µM] | Activity (MDA-MB-231 [2]) | Activity (MDA-MB-231 [3]) | Activity (MDA-MB-231 [4]) | Activity (MDA-MB-231 [5])
COc1cccc(C2C3=C(Oc4ccc(C[C@@H](CO)NC(=O)OC(C)(C)C)cc42)c2ccccc2OC3(C)C)c1 (stereo not given in full) | 2.9 | 29.9 | > 25 | – | – | – | –
COc1ccc2c(c1)C(c1ccc(SC)cc1)C1=C(O2)c2ccccc2OC1(C)C (stereo not given) | 17.1 | 20 | > 25 | – | – | – | –
COc1ccccc1C1C2=C(Sc3ccc(Cl)cc31)c1ccccc1OC2(C)C (stereo not given) | 48.6 | 39.5 | > 25 | – | – | – | –
COc1ccccc1C1C2=C(Oc3ccc(C[C@H](N)CO)cc31)c1ccccc1OC2(C)C (stereo not given in full) | 2.5 | 2.6 | > 25 | Active | Dose-dependent effect | Active | Active
COc1ccc(C2C3=C(Sc4ccc(Cl)cc42)c2ccccc2OC3(C)C)cc1 (stereo not given) | 19.1 | 39 | > 25 | – | – | – | –
CSc1ccc(C2C3=C(Oc4ccc(C[C@@H](CO)NC(=O)OC(C)(C)C)cc42)c2ccccc2OC3(C)C)cc1 (stereo not given in full) | 21.1 | 32 | > 25 | – | – | – | –
COc1cccc(C2C3=C(Oc4ccc(C[C@H](N)CO)cc42)c2ccccc2OC3(C)C)c1 (stereo not given in full) | 3.5 | 2.1 | > 25 | – | – | – | –
COc1cccc2c1C(c1cccs1)C1=C(S2)c2ccccc2OC1(C)C (stereo not given) | 29 | 26.3 | > 25 | – | – | – | –
CC/C(=C(\c1ccccc1)c1ccc(OCCN(C)C)cc1)c1ccccc1 [TAMOXIFEN CITRATE] | – | – | 30 | – | – | – | –
CC1(C)Oc2ccccc2C2=C1C(c1cccs1)c1cc(Cl)ccc1S2 (stereo not given) | 29 | 22.3 | > 25 | – | – | – | –
COc1ccccc1C1C2=C(Oc3ccc(C[C@H]4COC(C)(C)N4C(=O)OC(C)(C)C)cc31)c1ccccc1OC2(C)C (stereo not given in full) | 29 | 22.3 | > 25 | – | – | – | –
